We go through one compound from patent US20080300147A1, “Detection and Treatment of Fibrotic Disorders” (priority 2004, published 2008).

The subject of experiment [1] is leiomyoma smooth muscle cells (LSMC). In words: Realtime PCR mRNA expression in treated LSMC. The class given is cell-based, human. The procedure:
(§1) Isolation and Culture of Leiomyoma and Myometrial Smooth Muscle Cells. […] Only untreated tissues were used for isolation of LSMC and MSMC. […] LSMC and MSMC were cultured in 6-well plates at an approximate density of 10^6 cells/well in DMEM-supplemented media containing 10% FBS. After reaching visual confluence, the cells were washed in serum-free media and incubated for 24 hrs under serum-free, phenol red-free condition (Chegini, N et al. Mol Hum Reprod, 2002, 8:1071-8).
(§2) Quantitative RealTime PCR. Realtime PCR was utilized for verification of 10 differentially expressed and regulated genes identified in leiomyoma and myometrium as well as LSMC and MSMC from untreated and GnRHa-treated cohorts. The selection of these genes was based not only on their expression values (up or downregulation), but classification and biological functions important to leiomyoma growth and regression, regulation by ovarian steroids, GnRHa and TGF-β. They are IL-11, CITED2, Nur77, EGR3, TGIF, TIEG, p27, p57, GAS-1 and GPRK5 representing cytokines, transcription factors, cell cycle regulators and signal transduction.
(§3) Determination of TGF-β1 on global gene expression in LSMC and MSMC. All the materials utilized for this study including isolation of leiomyoma and myometrial cells are identical to those described in detail above. To determine the effect of TGF-β1 on global gene expression in LSMC and MSMC, the cells were cultured in 6-well plates at approximate density of 10^6 cells/well in DMEM-supplemented media containing 10% FBS. […] The cells were then treated with 2.5 ng/ml of TGF-β1 (R & D System, Minneapolis, […].) for 2, 6 and 12 hours. […] The cells were washed and then treated with TGF-β1 (2.5 ng/ml) for 2 hours. Parallel experiments using untreated cells were used as controls including an additional control for TGF-β type II receptor antisense and sense experiments.
(§4) Total cellular RNA was isolated from LSMC- and MSMC-treated and untreated controls and subjected to microarray analysis. To maintain standard and allow for comparative analysis, the GeneChips used in this study were utilized, simultaneously processed and their gene expression values were subjected to global normalization and transformation. Following these unsupervised assessments the coefficient of variation was calculated for each probe set across all the chips used in this study, and the selected gene expression values of this study were independently subjected to supervised learning including R programming analysis and ANOVA with false discovery rate selected at p<0.001 (Moustakas, A. Immunol Lett, 2002, 82:85-91; Verrecchia, F. et al. J Biol Chem, 2001, 276:17058-17062). The genes identified in these cohorts were analyzed for functional annotation and visualized using Database for Annotation, Visualization, and Integrated Discovery (DAVID) software with integrated GoCharts. Following the analysis, we selected 12 of the differentially expressed and regulated genes, including 10 identified and validated in leiomyoma and myometrium from untreated and GnRHa-treated cohorts, as well as LSMC and MSMC treated in vitro with GnRHa, for validation in response to TGF-β-time dependent action using Realtime PCR. They include IL-11, EGR3, CITED2, TIEG, TGIF, Nur77, p27, p57, GAS-1 and GPRK5. In addition, the expression of Runx1 and Runx2, transcription factors that interact with TGF-β receptor signaling pathways (Zavadil, J. et al. Proc Natl Acad Sci USA, 2001, 98:6686-6691), was validated in LSMC and MSMC as well as in leiomyoma and myometrium from GnRHa-treated and untreated cohorts. Detail description of the materials and methods for Realtime PCR as well as data analysis is provided in Chegini, N. et al. J Soc Gynecol Investig, 2003, 10:161-71.
(§5) Isolation and Culture of Leiomyoma and Myometrial Smooth Muscle Cells. Leiomyoma and myometrial smooth muscle cells (LSMC and MSMC) were isolated and cultured as previously described (Chegini, N. et al. Mol Hum Reprod, 2002, 8:1071-1078). […]

Experiment [2] has as its system myometrial smooth muscle cells (MSMC). Kind of experiment: Realtime PCR mRNA expression in treated MSMC. The class given is cell-based, human. As to the method: as §1, §2, §3, §4, §5
The mark [3] stands for this setting: GnRHa 0.1 μM, 2, 6 and 12 hours.
The mark [4] stands for this setting: GnRHa 0.1 μM, within 2 to 6 hours, control levels after 12 hours.

`CCNC(=O)[C@@H]1CCCN1C(=O)[C@H](CCCNC(=N)N)NC(=O)[C@H](CC(C)C)NC(=O)[C@@H](CC(C)C)NC(=O)[C@H](Cc1ccc(O)cc1)NC(=O)[C@H](CO)NC(=O)[C@H](Cc1c[nH]c2ccccc12)NC(=O)[C@H](Cc1c[nH]cn1)NC(=O)[C@@H]1CCC(=O)N1` [GnRHa, leuprolide acetate]: in experiment [1] (setting [3]), the “CITED2 expression in LSMC” value is on record as “inhibiting” and the “GPRK5 expression in LSMC” value is reported as “inhibits”. In experiment [1] (GnRHa 0.1 μM, 2, 6 and 12 hrs), the “CCN2 mRNA expression in LSMC” value is on record as “inhibited”, the “CCN3 mRNA expression in LSMC” value was “inhibited”, the “CCN4 mRNA expression in LSMC” value is on record as “inhibited” and the “S100A4 mRNA expression in LSMC” value is given as “inhibited”. Further, the “fibulin-1C mRNA expression in LSMC” value in experiment [1] (GnRHa 0.1 μM, 2, 6 and 12 hrs) is “inhibited”. Besides, the “FMOD expression in LSMC” value in experiment [1] (GnRHa 0.1 μM, 2 and 6 hrs) is “no significant effect”. Also, in experiment [1] (GnRHa 0.1 μM, 12 hrs), the “FMOD expression in LSMC” value is on record as “inhibited”. In addition, the “IL-11 expression in LSMC” value in experiment [1] (setting [4]) is “increased”. In addition, the “Nur77 expression in LSMC” value in experiment [1] (GnRHa 0.1 μM, subsequently fell below untreated levels) is given as “rapid induction”. Also, in experiment [2] (setting [3]), the “CITED2 expression in MSMC” value is on record as “biphasic effect”, the “GPRK5 expression in MSMC” value is reported as “inhibits”, the “Runx1 expression in MSMC” value was “time-dependent inhibition” and the “Runx2 expression in MSMC” value is given as “time-dependent inhibition”. Moreover, in experiment [2] (GnRHa 0.1 μM, 2, 6 and 12 hrs), the “CCN2 mRNA expression in MSMC” value is given as “inhibited”, the “CCN3 mRNA expression in MSMC” value is on record as “inhibited”, the “CCN4 mRNA expression in MSMC” value was “inhibited” and the “S100A4 mRNA expression in MSMC” value is recorded as “inhibited”. Further, the “fibulin-1C mRNA expression in MSMC” value in experiment [2] (GnRHa 0.1 μM, 2, 6 and 12 hrs) is “inhibited”. Moreover, in experiment [2] (GnRHa 0.1 μM, 2 and 6 hrs), the “FMOD expression in MSMC” value is on record as “no significant effect”. Moreover, the “FMOD expression in MSMC” value in experiment [2] (GnRHa 0.1 μM, 12 hrs) is reported as “inhibited”. The “IL-11 expression in MSMC” value in experiment [2] (setting [4]) is recorded as “increased”. Besides, in experiment [2] (GnRHa 0.1 μM, subsequently declined to control levels), the “Nur77 expression in MSMC” value is on record as “rapid induction”.
